Results from ChEMBL document CHEMBL2074312, “Involvement of multispecific organic anion transporter, Oatp14 (Slc21a14), in the transport of thyroxine across the blood-brain barrier” (Endocrinology, 2004).

target: Solute carrier organic anion transporter family member 1C1; test: TP_TRANSPORTER: inhibition of L-T4 uptake in Oatp14-expressing HEK293 cells; assay type: functional, cell-based

Row | Ki | SMILES
1 | 53.1 µM | C[C@]12CC[C@@H]3c4ccc(OS(=O)(=O)O)cc4CC[C@H]3[C@@H]1CCC2=O [ESTRONE SULFURIC ACID]
2 | 24.2 µM | N[C@@H](Cc1cc(I)c(Oc2ccc(O)c(I)c2)c(I)c1)C(=O)O [LIOTHYRONINE]
3 | 2.15 µM | O=C(O)Cc1cc(I)c(Oc2ccc(O)c(I)c2)c(I)c1 [TIRATRICOL]
4 | 0.27 µM | N[C@H](Cc1cc(I)c(Oc2cc(I)c(O)c(I)c2)c(I)c1)C(=O)O [DEXTROTHYROXINE]
5 | 293 µM | CCCN(CCC)S(=O)(=O)c1ccc(C(=O)O)cc1 [PROBENECID]

Row | SMILES | Ki
6 | C[C@]12CC[C@@H]3c4ccc(O)cc4CC[C@H]3[C@@H]1CC[C@@H]2O[C@@H]1O[C@H](C(=O)O)[C@@H](O)[C@H](O)[C@H]1O [ESTRADIOL 17B GLUCURONIDE] | > 100 µM
7 | N[C@@H](Cc1ccc(Oc2cc(I)c(O)c(I)c2)c(I)c1)C(=O)O [REVERSE TRIIODOTHYRONINE] | 0.91 µM
